Entries after “also recorded” stand apart in the source; their conditions may differ.
What was measured:
[1] = system: PGC-1α and related genes; assay: Gene expression in nerve cell test (Neuro-2a); assay type: cell-based, mouse; settings: Neuro-2a cells, 0.1 mg/ml, 24 hours
Description: Neuroblasts (Neuro-2a, American Type Culture Collection, USA) were cultured in DMEM supplemented with 10% fetal bovine serum, […], and 0.1 mg/mL streptomycin in each well of 6-well plates at 37° C. in 5% CO2/95% atmospheric conditions. Neuro-2a cells correspond to the fast-growing mouse neuroblastoma cell line. After Neuro-2a cells were seeded at a density of 6000 cells per well, SL was added at a concentration of 0.1 mg/ml into the wells showing a confluency of about 5×10^6 cells/ml, followed by incubation for 24 hours under the same conditions. SL (3′-SL or 6′-SL) materials were the same as those described in Example 1. Unless otherwise stated, SL (3′-SL or 6′-SL) and the use concentrations thereof are understood to be the same as those described in Example 1. The negative control group was treated with physiological saline with 1/1000 of the volume of the medium. The cells treated with each sample were incubated at 37° C. for 24 hours, and then washed twice with cool saline solution, and RNA was extracted using TRIzol agent (Invitrogen). The expression patterns of PGC-1α and related genes were measured by using pre-designed primers and probes (Applied Biosystems; PGC-1α, Mm00447181_m1, GAPDH, and Mm99999915_q1) for the synthesized cDNA and analysis targets (Fndc5, PGC-1α, Erra, UCP1, BDNF, SOD2, and GPX1). […]

[2] = system: ob mouse (C57BL/6J-ob/ob) models; assay: Topical fat removal by meso roller administration in ob mouse models; assay type: in vivo; settings: 0.1 M SL, meso roller on day 0 and day 4, observed on day 7
Description: In addition, in the ob mouse (C57BL/6J-ob/ob) models fed with a high-fat diet without SL treatment, the topical fat removal effect by SL (3′-SL & 6′-SL) administration using a meso roller (0.5 mm, INTO MR, Intomedi Inc.) was investigated. Specifically, the hairs on the dorsal side of the […] were shaved, and 0.1 M SL in the saline buffer was applied to the skin, and was absorbed into the skin by rubbing with the meso roller. The control group was tested by the same method except that the buffer was used without SL. […] In FIG. 15, 3′-SL, 6′-SL, and CTL represent the 3′-SL administration group, the 6′-SL administration group, and the control group, respectively. After feeding with a high-fat diet for 10 weeks, SL (3′-SL & 6′-SL) compositions were topically administered on day 0 and day 4 using the meso roller, and then dermoscopy observation was conducted on day 7. The observation results are shown.

[3] = system: ICH models; assay: Modified limb placing test (MLPT) in intracerebral hemorrhage (ICH) models; assay type: in vivo, rat; settings: first day and third day after ICH induction; intraperitoneal
Text: In order to investigate the changes in ischemic volume and modified limb placing test (MLPT) score by treatment with SL (3′-SL & 6′-SL) compositions in stroke models, 4-week-old mice were purchased from Central Lab Animal (Korea). Water was freely accessible, and a commercially available pellet feed (Dooyeul Biotech, Korea) was given for one week. Stroke models involving temporary and permanent middle cerebral artery (MCA) occlusion and intracerebral hemorrhage (ICH) were fabricated using 6-week-old male Sprague-Dawley rats (weight, average 185.3±15.8 g) and male BALB/c mice weight, average 24.6±3.8 g). […] The model was suspended at 10 cm above a table, and the stretch of the forelimbs toward the table was scored (0 points for normal stretch and 1 point for abnormal fexion). […] The evaluation results for three tasks were scored in the following manner: 0 points for normal performance, 1 point for performance with a delay (at least 2 seconds) or incomplete performance, and 2 points for no performance. […]

[4] = system: mouse aortic smooth muscle cells (MASMs); assay: Intracellular H2O2 (ROS values, H2DCFDA) in MASMs of aging stimulation model mice; assay type: cell-based; settings: MASMs from aging stimulation model mice; SL added to culture liquid
Description: In addition, for cell-level tests, mouse aortic smooth muscle cells (MASMs) were isolated from the control group fed with a high-fat diet (Rodent Diet with 60 kcal % fat) without SL administration (Griendling et al., 1991), and the SL (3′-SL & 6′-SL) compositions were added to the culture liquid, followed by incubation. For intracellular H2O2 measurement (ROS values), the cells were cultured in 12-well culture plates immersed in 0.1% bovin calf serum. The intracellular ROS values were measured using H2DCFDA. For assay, the cells were cultured together with H2DCFDA in HBSS buffer for 30 minutes. The cells were trypsinized, washed, and lysed in HBSS. The fluorescence values were measured immediately by a CytoFluor plate reader (FIG. 17a).
(§1) In FIGS. 17a and 17b, MASMs were extracted from the aging stimulation model mouse control group, and the SL (3′-SL & 6′-SL) compositions were added to the culture liquid to conduct comparison.
(§2) FIGS. 17a and 17b show the measurement results of intercellular H2O2 (ROS values) (FIG. 17a) and the measurement results of mitochondrial superoxide production (FIG. 17b).

[5] = system: mouse aortic smooth muscle cells (MASMs); assay: Mitochondrial superoxide production (MitoSOX Red) in MASMs of aging stimulation model mice; assay type: cell-based; settings: MASMs from aging stimulation model mice; SL added to culture liquid
Description: For the measurement of mitochondrial superoxide production, mitochondrial ROS was measured using MitoSOX Red (mitochondrial superoxide fluorescent marker). MASMs were extracted, and incubated with MitoSOX (4 μM) in the dark room at 37° C. for 20 minutes. The MitoSOX fluorescence was quantified by the cell fluorescence intensity read using a fluorescent plate reader (480 nm excitation/580 nm emission) (FIG. 17b).
as §1, §2

Question: Which results are given for CC(=O)N[C@H]1[C@H]([C@H](O)[C@H](O)CO)O[C@@](OC[C@H]2O[C@@H](O[C@H]3[C@H](O)[C@@H](O)[C@H](O)O[C@@H]3CO)[C@H](O)[C@@H](O)[C@H]2O)(C(=O)O)C[C@@H]1O [6′-SL, α-NeuNAc-(2→6)-β-D-Gal-(1→4)-D-Glc]?
Answer: expression levels of analysis targets (Fndc5, PGC-1α, Erra, UCP1, BDNF, SOD2, GPX1) vs negative control [1]: significant increases; topical fat removal (dermoscopy) vs negative control portion [2]: topical fat was removed; MLPT test score vs control group (neurodegeneration inhibitory effects) [3]: lower; intracellular H2O2 (ROS values) [4]: dropped the ROS values; mitochondrial superoxide production [5]: inhibited the mitochondrial superoxide production

Question: Which results are given for CC(=O)N[C@H]1[C@H]([C@H](O)[C@H](O)CO)O[C@@](O[C@H]2[C@@H](O)[C@@H](CO)O[C@@H](O[C@H]3[C@H](O)[C@@H](O)C(O)O[C@@H]3CO)[C@@H]2O)(C(=O)O)C[C@@H]1O (stereo partly drawn) [3′-SL, α-NeuNAc-(2→3)-β-D-Gal-(1→4)-D-Glc]?
Answer: expression levels of analysis targets (Fndc5, PGC-1α, Erra, UCP1, BDNF, SOD2, GPX1) vs negative control [1]: significant increases; also recorded: lower than that of 6′-SL; topical fat removal (dermoscopy) vs negative control portion [2]: relatively low compared with 6′-SL; MLPT test score vs control group (neurodegeneration inhibitory effects) [3]: relatively low compared with 6′-SL; intracellular H2O2 (ROS values) [4]: dropped the ROS values; mitochondrial superoxide production [5]: inhibited the mitochondrial superoxide production

Source: US20190030053A1, “COMPOSITION FOR INCREASING EXPRESSION OF PGC-1alpha” (BENEBIOSIS CO., LTD., priority 2016, published 2019)
